Measurements as given in US9938240B2, “Fluorinated derivatives of 3-hydroxypyridin-4-ones” (Apotex Technologies Inc., priority 2009, dated 2018).

Assays:
[1] = tested on: human neuroblastoma MC-65 cells; experiment: cells; settings: for EC100 / minimal effective concentration: Homo sapiens, MC65, 48 h; for EC100: read-out: EC100 (maximum effective concentration); for minimal effective concentration: read-out: TH (threshold protective concentration); for CC2 (cytotoxic concentration): MC-65, cultured without tetracycline; for CC2 (cytotoxic concentration) / CC1 (cytotoxic concentration): viability below 80%; for CC1 (cytotoxic concentration): MC-65, presence of TET
Procedure, shortened: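 MC-65 cells (conditional Aβ fusion-protein expression, TET-repressed) were washed free of TET and FBS, then exposed to compound ~48 h in serum-free medium without or with 1 μg/mL TET.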

[2] = Stepwise formation constants for Zn-ligand system by potentiometric titration; format: physicochemical; settings: for pZn^2+: pH 7.4, ligand 10 μM, metal 1 μM
Experimental: In a typical experiment, the sample solution was prepared by the following method: Apo7041 (126.3 mg, 0.50 mmol) was weighed into a 50 mL volumetric flask, and about 35 mL of a mixed solvent (0.1 M NaCl aqueous:MeOH, 1:1, v:v) was added. The mixture was sonicated for 10 min to give a clear colorless solution. The zinc stock solution (atomic absorption standard, Aldrich, 6.64 mL, 0.10 mmol) was pipetted into the solution followed by addition of sodium hydroxide solution (6.000 N, 300 μL). More of the mixed solvent was added to volume and the resulting solution was vortexed to mix. The molar ratio between the total zinc and the total Apo7041 was 1/5. 40 mL of the solution was transferred into a T70 titration cell by using a 10 mL digital pipet. A 6.000 N sodium hydroxide solution (160 μL) was added, and the pH (11.95) of the solution was recorded. The solution was allowed to equilibrate at 22° C. for 5 min.
The solution was then titrated against a 6.000 N hydrochloric acid solution at 22° C. by using a Mettler Toledo T70 autotitrator, until the pH reached 1.5. The volume of acid added and the pH reading were recorded. Thus, 523 measurements were taken for this experiment.
The data set of pH vs. acid volume for Zn-Apo7041 system was analyzed using Hyperquad 2000 software (version 2.1, Peter Gans, University of Leeds). The formation constants for Zn-Apo7041 system were optimized using the model shown in the first column of the table 29D. The results are shown in the second and third column.
pM^n+ is defined as −log [M(H2O)m]^n+ at physiological conditions, i.e.: pH 7.4, a ligand concentration of 10 μM, and a metal concentration of 1 μM. To calculate pM^n+ for a MLn system, βn and pKa values are needed (βn are the formation constants for M^n++n L^−⇄MLn; pKa are the equilibrium constants for L^−+n H^+⇄LHn^(n-1)+). The pM^n+ is calculated using the HySS software (HYSS© 2000 Protonic Software).

[3] = Oral cassette dosing PK/BBB studies; format: in vivo, male Sprague-Dawley rats; settings: for BBB penetration: cassette dosing BBB studies in rats, in words; for AUC brain* / Kp / AUC: oral cassette dosing, male Sprague-Dawley rats; for AUC brain* / AUC: AUC normalized to 1 mg/kg dose; for Kp / AUC: rat; for Kp: brain and plasma, read-out: AUC brain/AUC plasma; for AUC: plasma
Experimental: In-vivo pharmacokinetic (PK) and blood brain barrier (BBB) studies were conducted in male Sprague-Dawley rats using cassette dosing via oral administration. […] No. 15, pp. 652-658.

[4] = tested on: SH-SY5Y human neuroblastoma cells; settings: for CC2 (cytotoxic concentration): H2O2-treated cells, viability below 80%; for CC1 (cytotoxic concentration): absence of H2O2, viability below 80%
Procedure, shortened: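 SH-SY5Y cells were treated with a range of compound concentrations, with or without 50 μM H2O2, in serum-free medium for 16–22 h. Viability was measured by MTT and expressed relative to cells receiving neither H2O2 nor compound. Runs without H2O2 assessed cytotoxicity.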

[5] = 0.1M aqueous NaCl/MeOH, 1/1, v/v
[6] = 0.1M aqueous NaCl/MeOH, 1/1, v/v, listed as drawing 104

| Compound | EC100 [1] | minimal effective concentration [1] | CC2 (cytotoxic concentration) [1] | CC1 (cytotoxic concentration) [1] | Log β111 (Zn2+) [2, 5] | Log β120 (Zn2+) [2, 5] | Log β121 (Zn2+) [2, 5] | Log β111 (Zn2+) [2, 6] | Log β120 (Zn2+) [2, 6] | Log β121 (Zn2+) [2, 6] | pZn^2+ [2] | BBB penetration [3] | AUC brain* [3] | Kp [3] | AUC [3] | CC2 (cytotoxic concentration) [4] | CC1 (cytotoxic concentration) [4] | Logβ1 (Zn2+) [2, 5] | Logβ2 (Zn2+) [2, 5] |
| --- | --- | --- | --- | --- | --- | --- | --- | --- | --- | --- | --- | --- | --- | --- | --- | --- | --- | --- | --- |
| CN(C)C(c1c(O)c(=O)ccn1C)C(F)(F)F (centres unmarked) [Apo7041, 2-[1-(dimethylamino)-2,2,2-trifluoroethyl]-3-hydroxy-1-methylpyridin-4(1H)-one] | 10 µM | 0.1 µM | 80 µM | 10 µM | 13.1 | 13.2 | 19.6 | Logβ111 = 13.1 | Logβ120 = 13.2 | Logβ121 = 19.6 | pZn^2+ = 6.0 | less favorable than deferiprone in BBB penetration | 450 ng·h/mL | 0.75 | 600 ng·h/mL | 320 µM | 160 µM | – | – |
| CNC(c1cn(C)c(C)c(O)c1=O)C(F)(F)F (centres unmarked) [Apo7056, 3-Hydroxy-1,2-dimethyl-5-[2,2,2-trifluoro-1-(methylamino)ethyl]pyridin-4(1H)-one] | 10 µM | 0.1 µM | 80 µM | 80 µM | – | – | – | – | – | – | – | – | 770 ng·h/mL | 0.56 | 1380 ng·h/mL | – | – | – | – |
| CN(C)Cc1c(O)c(=O)ccn1CC(F)(F)F [Apo7067, 2-[(dimethylamino)methyl]-3-hydroxy-1-(2,2,2-trifluoroethyl)pyridin-4(1H)-one] | 10 µM | 0.1 µM | 80 µM | 80 µM | – | – | – | – | – | – | – | readily penetrates the BBB | 740 ng·h/mL | 1.5 | 500 ng·h/mL | >640 µM | 160 µM | – | – |
| O=c1ccn(CC(F)(F)F)c(CN2CCOCC2)c1O [Apo7323, 3-hydroxy-2-(morpholinomethyl)-1-(2,2,2-trifluoroethyl)pyridin-4(1H)-one] | 20 µM | 1 µM | 80 µM | 80 µM | – | – | – | – | – | – | – | – | – | – | – | 320 µM | 160 µM | – | – |
| Cc1c(O)c(=O)c(C(N2CCOCC2)C(F)(F)F)cn1C (centres unmarked) [Apo7435, 3-hydroxy-1,2-dimethyl-5-(2,2,2-trifluoro-1-morpholinoethyl)pyridin-4(1H)-one] | 10 µM | 1 µM | 40 µM | 40 µM | – | – | – | – | – | – | – | – | – | – | – | 320 µM | 80 µM | – | – |
| Cc1c(O)c(=O)ccn1C [Deferiprone, 3-hydroxy-1,2-dimethylpyridin-4(1H)-one, reference compound] | – | – | – | – | – | 15.0 | – | – | – | – | pZn^2+ = 6.3 | – | – | – | – | – | – | Logβ1 = 8.1 | Logβ2 = 15.0 |
